These results are taken from article PMC9501525, “Conjugation of a Cationic Cell-Penetrating Peptide with a Novel Kunitzin-like Trypsin Inhibitor: New Insights for Enhancement of Peptide Bioactivities” (Pharmaceutics, 2022).

Broadly, the MIC is the smallest concentration in the dilution series that meets the test's criterion for growth inhibition. As usually defined, the Ki is a measure of affinity in units of concentration, obtained from inhibition or displacement. A lower Ki goes with a stronger hold on the target.

Peptide text beside a SMILES is read from it. Where only a bound is given, the exact number is not on record here.

The test system of data set [1] is K. pneumoniae (ATCC 43816). Type of data set: cell-based, Klebsiella pneumoniae. As to conditions: for MIC: MHB, 5 × 10^5 CFU/mL, overnight; for MBC: clear wells spotted onto MHA. Here is the method: (§1) The antimicrobial efficacy screening of the purified peptides was performed by MIC/MBC experiments on the following six different bacteria and an opportunistic pathogenic yeast: E. coli (ATCC 8739), Klebsiella pneumoniae (K. pneumoniae) (ATCC 43816), Pseudomonas aeruginosa (P. aeruginosa) (ATCC 9027), Staphylococcus aureus (S. aureus) (ATCC 6538), methicillin-resistant Staphylococcus aureus (MRSA) (NCTC 12493), Enterococcus faecium (E. faecium) (NCTC 12697), and Candida albicans (C. albicans) (ATCC 10231). First, frozen beads of respective cultures were inoculated into Mueller Hinton broth (MHB) medium and incubated overnight at 37 °C. Next, 500 µL of respective suspensions were added to the fresh MHB medium for incubation, and then sub-cultured until reaching the log growth phase, which was determined by measuring the absorbance of cultures at a wavelength of 550 nm. Then, the subcultures were diluted to 5 × 10^5 CFU/mL and 99 µL of suspension was removed and mixed with 1 µL of peptide solution at different concentrations (double-dilution of 12,800 to 100 µM) in a 96-well plate. The blank control, vehicle control, growth control, and the positive control groups were prepared according to the conditions mentioned previously. The peptide solutions were added to the plate and mixed with the diluted microbial suspensions. After overnight incubation, the absorbance at 550 nm of each well was measured with a Synergy HT plate reader (Biotech, Minneapolis, MN, USA). Subsequently, the samples in each clear well were spotted onto Mueller Hinton agar (MHA) plates for the MBC assays of the tested peptides.

A further data set deals with S. aureus (ATCC 6538). Type of data set: cell-based, Staphylococcus aureus. As to conditions: for MIC: MHB, 5 × 10^5 CFU/mL, overnight, absorbance 550 nm; for MBC: clear wells spotted onto MHA. Here is the method: as §1
The target in the next data set is chymotrypsin (Bos taurus, UniProt P00766). The experiment in a line: Chymotrypsin inhibition determination (fluorogenic substrate, Morrison Ki). Type of data set: biochemical. To be noted: Morrison equation; substrate succinyl-Ala-Ala-Pro-Phe-AMC in PBS; Km = 17.15 μM, [S] = 42.86 μM, Et = 0.0020 μM; peptide 0.1–100 µM; nine replications in three experiments; N.I. = no inhibitory effect. The protocol:
Phe-Pro-Arg-AMC (Bachem, Merseyside, UK) and succinyl-Ala-Ala-Pro-Phe-AMC (Bachem, Merseyside, UK) were used as substrates for trypsin and chymotrypsin inhibition determinations, respectively. Serial peptide dilutions (0.1–100 µM in phosphate buffered saline (PBS)) were incubated with 180 µL of substrate solution (50 µM in PBS) in a black 96-well plate under dark conditions for 10 min. Immediately prior to measurement, 10 µL of trypsin/chymotrypsin working solution (0.1 µM in PBS) was added to each well (final volume of 210 µL) in the plate. Subsequently, the fluorescence intensity was measured with the FLUO star OPTIMA plate reader (BMG Labtech, Ortenberg, Germany). The whole measurement process lasted for 30 min and was carried out at an emission wavelength of 460 nm and an excitation wavelength of 395 nm. The inhibition curves of trypsin and chymotrypsin were analyzed by non-linear regression using the Morrison equation in Prism 9 (Trypsin Km = 67.38 μM; Chymotrypsin Km = 17.15 μM; [S] = 42.86 μM; Et = 0.0020 μM).

The next data set concerns E. coli (ATCC 8739). It is filed as cell-based, Escherichia coli. To be noted: for MIC: MHB, 5 × 10^5 CFU/mL, overnight; for MBC: clear wells spotted onto MHA. The protocol: as §1
Another data set relates to E. coli biofilm. The experiment in a line: Antibiofilm assays (MBIC/MBEC, crystal violet). Type of data set: cell-based, Escherichia coli. As to conditions: for Concentration inhibiting biofilm formation (MBIC): E. coli, LB + 1% glucose, overnight 37 °C, crystal violet 595 nm, tested 1 to 128 µM; for Effect on existing biofilms (MBEC): E. coli pre-formed biofilm, 24 h, highest experimental concentration 128 µM. The protocol: To explore the ability of peptides to inhibit and eradicate the biofilm of E. coli, the minimum biofilm inhibition concentrations (MBICs) and minimum biofilm eradication concentrations (MBECs) were tested, respectively. Luria-Bertani broth (LB) medium containing 1% glucose was used to culture E. coli. The subcultured bacteria were diluted to 5 × 10^5 CFU/mL and 99 µL of this bacterial suspension was used to mix with 1 µL of peptide solution at different concentrations (double-dilution of 12,800 to 100 µM) in a 96-well plate. After overnight culture in an oscillating incubator at 37 °C and 220 rpm, the formed biofilm was washed twice with 100 µL PBS, then fixed in methanol. Next, biofilm formation was evaluated by 0.1% crystal violet staining. After dyeing for 15 min, the excess crystal violet was washed off and 30% glacial acetic acid was added to each well of a 96-well plate after drying. Then, the plate was shaken for 15 min, and the absorbance was measured at 595 nm using the Synergy HT plate reader. For the determination of MBEC, after the biofilm was formed, it was first washed twice with PBS, then the fresh medium and different concentrations of peptide (similar to MBIC experiments) were added and incubated at 37 °C at 220 rpm. The absorbance measurement was the same as previously described after 24 h of MBIC.

Another data set relates to C. albicans (ATCC 10231). It is filed as cell-based, Candida albicans. To be noted: for MIC: MHB, 5 × 10^5 CFU/mL, overnight; for MBC: clear wells spotted onto MHA. The protocol: as §1
The test system of another data set is horse erythrocytes. In words: Haemolysis activity assay. It is filed as cell-based. To be noted: 2% horse erythrocytes in PBS, 37 °C, 2 h. The protocol:
Horse erythrocytes (TCS Biosciences Ltd., Buckingham, UK) were washed completely with PBS and resuspended to obtain a 2% horse erythrocyte suspension. Then, the peptide solutions at different concentrations were gently mixed with the same volume of horse red blood cell suspension and the mixture of peptide and horse erythrocytes was placed into a humidified incubator at 37 °C for 2 h. After incubation, the mixture of all experimental groups was centrifuged at 900× g for 10 min and the supernatants obtained were transferred to a blank 96-well plate. The absorbance of each well was measured at 550 nm using the Synergy HT plate reader.

In data set [2] the test system is P. aeruginosa (ATCC 9027). Type of data set: cell-based, Pseudomonas aeruginosa. As to conditions: for MIC: MHB, 5 × 10^5 CFU/mL, overnight; for MBC: clear wells spotted onto MHA. The protocol:
as §1

In the next data set the test system is E. faecalis (NCTC 12697). Type of data set: cell-based. As to conditions: for MIC: MHB, 5 × 10^5 CFU/mL, overnight; for MBC: clear wells spotted onto MHA. The protocol:
as §1

Setting [3] is: peptide 128 µM (maximum test concentration), vs 0.1% Triton X-100.

As for `CC(C)C[C@H](NC(=O)[C@H](CCCCN)NC(=O)[C@H](C)NC(=O)[C@H](C)N)C(=O)N1CCC[C@H]1C(=O)N[C@@H](Cc1ccccc1)C(=O)N[C@@H](CCCNC(=N)N)C(=O)N[C@H]1CSSC[C@@H](C(=O)O)NC(=O)[C@H](Cc2ccccc2)NC(=O)[C@H](C)NC(=O)[C@H](C)NC(=O)[C@H](Cc2ccccc2)NC1=O` [F9-KOV2] (HELM PEPTIDE1{A.A.K.L.P.F.R.C.F.A.A.F.C}$PEPTIDE1,PEPTIDE1,8:R3-13:R3$$$V2.0), the MIC (in data set [1]; with S. aureus (ATCC 6538); in the data set with E. coli (ATCC 8739); in the data set with C. albicans (ATCC 10231); in [2]; in the data set on E. faecalis (NCTC 12697)) was greater than 128 µM each time. The MBC (in [1]; in the data set with S. aureus (ATCC 6538); in the data set on E. coli (ATCC 8739); in the data set with C. albicans (ATCC 10231); in data set [2]; with E. faecalis (NCTC 12697)) was greater than 128 µM in each case. This molecule registered a Ki at chymotrypsin of 2190 nM. Also, in the data set with E. coli biofilm, the “Concentration inhibiting biofilm formation (MBIC)” value is given as greater than 128 µM. Moreover, the Haemolytic activity entry with horse erythrocytes (setting [3]) is listed as “less than 10%”.

For the molecule `CC(C)C[C@H](NC(=O)[C@H](CCCCN)NC(=O)[C@H](C)NC(=O)[C@H](C)N)C(=O)N1CCC[C@H]1C(=O)N[C@@H](Cc1ccccc1)C(=O)N[C@@H](CCCNC(=N)N)C(=O)N[C@H]1CSSC[C@@H](C(=O)O)NC(=O)[C@H](Cc2ccccc2)NC(=O)[C@H](C)NC(=O)[C@H](C)NC(=O)[C@H](CCCCN)NC1=O` [Kunitzin-OV2] (HELM PEPTIDE1{A.A.K.L.P.F.R.C.K.A.A.F.C}$PEPTIDE1,PEPTIDE1,8:R3-13:R3$$$V2.0), the MIC in [1] is listed as greater than 128 µM; with S. aureus (ATCC 6538), greater than 128 µM; with E. coli (ATCC 8739), 128 µM; with C. albicans (ATCC 10231) it was greater than 128 µM; in [2] it was greater than 128 µM; in the data set on E. faecalis (NCTC 12697), greater than 128 µM. The MBC is greater than 128 µM in data set [1]; greater than 128 µM in the data set with S. aureus (ATCC 6538); 128/128 µM with E. coli (ATCC 8739); greater than 128 µM with C. albicans (ATCC 10231); greater than 128 µM in [2]; greater than 128 µM with E. faecalis (NCTC 12697). The “Chymotrypsin Ki” value on chymotrypsin is “N.I”. In addition, in the data set on E. coli biofilm, the “Concentration inhibiting biofilm formation (MBIC)” value was greater than 128 µM. Further, in the data set with horse erythrocytes (setting [3]), the Haemolytic activity entry was “less than 10%”.

Turning to `CC(C)C[C@H](NC(=O)[C@H](CCCCN)NC(=O)[C@H](C)NC(=O)[C@H](C)NC(=O)CNC(=O)CNC(=O)[C@H](CCCNC(=N)N)NC(=O)[C@H](CCCNC(=N)N)NC(=O)[C@H](CCCNC(=N)N)NC(=O)[C@H](CCC(N)=O)NC(=O)[C@H](CCCNC(=N)N)NC(=O)[C@H](CCCNC(=N)N)NC(=O)[C@H](CCCCN)NC(=O)[C@H](CCCCN)NC(=O)[C@@H](N)CCCNC(=N)N)C(=O)N1CCC[C@H]1C(=O)N[C@@H](Cc1ccccc1)C(=O)N[C@@H](CCCNC(=N)N)C(=O)N[C@H]1CSSC[C@@H](C(=O)O)NC(=O)[C@H](Cc2ccccc2)NC(=O)[C@H](C)NC(=O)[C@H](C)NC(=O)[C@H](Cc2ccccc2)NC1=O` [TAT-F9-KOV2] (HELM PEPTIDE1{R.K.K.R.R.Q.R.R.R.G.G.A.A.K.L.P.F.R.C.F.A.A.F.C}$PEPTIDE1,PEPTIDE1,19:R3-24:R3$$$V2.0), the MIC in data set [1] was greater than 128 µM; in the data set with S. aureus (ATCC 6538) it was 64 µM; in the data set on E. coli (ATCC 8739), 8 µM; in the data set on C. albicans (ATCC 10231), greater than 128 µM; in data set [2] it was greater than 128 µM; with E. faecalis (NCTC 12697), greater than 128 µM. Besides, the MBC was greater than 128 µM in data set [1]; 128 µM in the data set with S. aureus (ATCC 6538); 8/8 µM in the data set on E. coli (ATCC 8739); greater than 128 µM in the data set on C. albicans (ATCC 10231); greater than 128 µM in data set [2]; greater than 128 µM in the data set with E. faecalis (NCTC 12697). This molecule gave a Ki on chymotrypsin of 2230 nM. For the same molecule, the “Effect on existing biofilms (MBEC)” value in the data set with E. coli biofilm was greater than 128 µM. The “Concentration inhibiting biofilm formation (MBIC)” value with E. coli biofilm is reported as 16 µM. For the same molecule, the Haemolytic activity is reported as 10% with horse erythrocytes (peptide 32 µM) and “about 25%” in the data set on horse erythrocytes (setting [3]).

With `CC(C)C[C@H](NC(=O)[C@H](CCCCN)NC(=O)[C@H](C)NC(=O)[C@H](C)NC(=O)CNC(=O)CNC(=O)[C@H](CCCNC(=N)N)NC(=O)[C@H](CCCNC(=N)N)NC(=O)[C@H](CCCNC(=N)N)NC(=O)[C@H](CCC(N)=O)NC(=O)[C@H](CCCNC(=N)N)NC(=O)[C@H](CCCNC(=N)N)NC(=O)[C@H](CCCCN)NC(=O)[C@H](CCCCN)NC(=O)[C@@H](N)CCCNC(=N)N)C(=O)N1CCC[C@H]1C(=O)N[C@@H](Cc1ccccc1)C(=O)N[C@@H](CCCNC(=N)N)C(=O)N[C@H]1CSSC[C@@H](C(=O)O)NC(=O)[C@H](Cc2ccccc2)NC(=O)[C@H](C)NC(=O)[C@H](C)NC(=O)[C@H](CCCCN)NC1=O` [TAT-KOV2] (HELM PEPTIDE1{R.K.K.R.R.Q.R.R.R.G.G.A.A.K.L.P.F.R.C.K.A.A.F.C}$PEPTIDE1,PEPTIDE1,19:R3-24:R3$$$V2.0), the minimal inhibitory concentration (MIC) in [1] is greater than 128 µM; in the data set on S. aureus (ATCC 6538) it was 32 µM; in the data set on E. coli (ATCC 8739), 4 µM; with C. albicans (ATCC 10231), greater than 128 µM; in [2] it was greater than 128 µM; with E. faecalis (NCTC 12697), 128 µM. Also, the MBC was greater than 128 µM in [1]; 64 µM in the data set with S. aureus (ATCC 6538); 4/4 µM in the data set with E. coli (ATCC 8739); greater than 128 µM in the data set with C. albicans (ATCC 10231); greater than 128 µM in [2]; greater than 128 µM with E. faecalis (NCTC 12697). On chymotrypsin, the “Chymotrypsin Ki” value is “N.I”. Moreover, the “Effect on existing biofilms (MBEC)” value in the data set on E. coli biofilm is given as greater than 128 µM. For the same molecule, the “Concentration inhibiting biofilm formation (MBIC)” value with E. coli biofilm was found to be 8 µM. Moreover, the Haemolytic activity in the data set on horse erythrocytes (setting [3]) was 10%.
